Measurements: patent US10813896B2, “Treatment of intrahepatic cholestatic diseases” (CymaBay Therapeutics, Inc., priority 2017, dated 2020)
Like-named read-outs stand apart in the source and are kept apart here. Blank lines part the entries; values can stand above or below the compound they belong to.

Assays:
[1] = system: subjects with mixed dyslipidemia; details: 8 weeks, cited from earlier work
[2] = Preclinical study of elimination; type: in vivo
PPARα = target: T1, PPARα (Homo sapiens, UniProt Q07869); details: PPARδ vs PPARα; cited from earlier work
T1 sequence (Q07869 1-468): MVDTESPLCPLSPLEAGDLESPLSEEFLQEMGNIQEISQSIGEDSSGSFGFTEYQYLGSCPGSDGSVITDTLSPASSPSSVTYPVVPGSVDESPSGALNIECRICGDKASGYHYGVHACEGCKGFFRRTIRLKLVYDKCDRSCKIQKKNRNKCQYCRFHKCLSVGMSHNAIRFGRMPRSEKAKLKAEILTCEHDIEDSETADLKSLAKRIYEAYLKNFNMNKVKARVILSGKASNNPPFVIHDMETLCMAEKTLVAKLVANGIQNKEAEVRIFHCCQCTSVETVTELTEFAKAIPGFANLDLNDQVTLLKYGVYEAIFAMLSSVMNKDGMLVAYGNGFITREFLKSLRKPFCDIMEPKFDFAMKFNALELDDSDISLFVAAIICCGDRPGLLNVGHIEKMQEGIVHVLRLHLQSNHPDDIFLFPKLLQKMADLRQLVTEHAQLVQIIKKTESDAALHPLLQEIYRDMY

[3] = system: subjects with an intrahepatic cholestatic disease such as PSC; test: Trial in PSC; type: in vivo, human; details: 1, 2, 5, and 10 mg/day oral
Protocol: Subjects are permitted their usual other medications, including UDCA. […] At each visit, after a 12-hour fast, blood is drawn and urine collected; and a standard metabolic panel, complete blood count, and standard urinalysis are performed. Blood is analyzed for TC, HDL-C, TG, VLDL-C, LDL-C, and apolipoprotein B, for liver function markers such as total and bone-specific ALP, for GGT, and also for total and conjugated bilirubin. The subjects also maintain health diaries, which are reviewed at each visit.

[4] = Exposure study in hepatic impairment (Child-Pugh classes B and C); type: in vivo, human; details: subjects with significant hepatic impairment
Source text: These amounts represent an average daily dose, and not necessarily an amount given at a single dose. Dosing may be as frequent as more than once/day (where the amount, or daily dose, will be divided between the number of administrations per day), but will more typically be once/day (where the amount is given in a single administration). Optionally, particularly in cases of significant hepatic impairment, the dosing may be less frequent than once/day, such as between once/week and every other day, for example once/week, twice/week (especially with the doses at least three days apart), three times/week (especially with the doses at least two days apart), or every other day; so that, as an example, a subject may receive 5 mg twice/week for an amount (daily dose) of 1.4 mg/day.

subjects with PBC [5] = test: Low-dose trial in PBC (NCT02955602); type: in vivo, human
Protocol: In the main study, running for 12 weeks, subjects were to receive either 2, 5, or 10 mg/day; while in an extension study, running for an additional 40 weeks, subjects in the 2 mg/day group were allowed to continue at the 2 mg/day dose or shift to either 5 or 10 mg/day, subjects in the 5 mg/day group were allowed to continue at the 5 mg/day dose or shift to 10 mg/day, and subjects in the 10 mg/day group were allowed to continue at the 10 mg/day dose or shift to 5 mg/day. At baseline (the mean of the screening values and the value at day 1), the subjects had the following values, with numbers in parentheses denoting standard deviations: The study has now been analyzed through 26 weeks: the 12 weeks of the main study and 14 weeks of the extension study.

subjects with PBC [6] = test: High dose trial in PBC (NCT02609048); type: in vivo, human; details: for cases of asymptomatic increases in transaminases: reversible on cessation of treatment, no elevation of TBIL; for mean decrease from baseline in ALP: last observation carried forward, at least two weeks of treatment; for reduction of LDL-C: after two weeks of dosing
Source text: The trial subjects were adult, male or female, with a diagnosis of PBC by at least two of the following three criteria: (a) a history of alkaline phosphatase (ALP) above the upper limit of normal (ULN) for at least six months, (b) positive anti-mitochondrial antibody titers >1/40 on immunofluorescence or M2 positive by enzyme linked immunosorbent assay or positive PBC-specific antinuclear antibodies, and (c) documented liver biopsy result consistent with PBC, on a stable and recommended dose of UDCA for the past twelve months or UDCA intolerant, and ALP≥1.67×ULN. Exclusion criteria included AST or ALT≥3×ULN, total bilirubin (TBIL)≥2×ULN, autoimmune hepatitis or a history of chronic viral hepatitis, PSC, the current use of fibrates or simvastatin, the use of colchicine, methotrexate, azathioprine, or systemic steroids in the previous two months, the use of an experimental treatment for PBC, and the use of an experimental or unapproved immunosuppressant. The primary study endpoint was decrease in ALP, and the secondary endpoint was the responder rate for subjects achieving ALP<1.67×ULN and total bilirubin within normal limit, and >15% decrease in ALP. Additional secondary endpoints were changes in GGT, TBIL, and 5′-nucleotidase, which are other recognized biochemical markers of cholestasis. […] During the study, three cases of asymptomatic increases in transaminases were observed (two in the 200 mg and one in the 50 mg groups). All three were reversible on cessation of treatment and were not accompanied by elevation of TBIL. Since the study had already shown a clear efficacy signal, the study was discontinued. […] According to the original statistical plan, changes in ALP were calculated using the last observation carried forward. The mean decreases from baseline in ALP for the 50 mg/day and 200 mg/day dose groups were 57% and 62%, respectively, compared with 0.37% for placebo (p<0.0001 for both). The responder rates for the placebo, 50 mg/day, and 200 mg/day groups were 10%, 67% and 100%, respectively, despite the baseline ALP levels being different at 239, 313, and 280 U/L. The p-values comparing the responder rates for the 50 mg/day and 200 mg/day groups with placebo were 0.020 and 0.0004 (Fisher's Exact Test), respectively.

[7] = seladelpar 50 or 100 mg alone or combined with ATV 20 mg, once daily oral, compared to placebo
[8] = combined 5 mg/day and 5 to 10 mg/day group, 26 weeks
[9] = through 26 weeks, 2, 5, 10 mg/day

SMILES: CC(C)c1c(C(=O)Nc2ccccc2)c(-c2ccccc2)c(-c2ccc(F)cc2)n1CC[C@@H](O)C[C@@H](O)CC(=O)O [ATV, atorvastatin, reference compound]
increase of GGT ([1]; ATV 20 mg group): 2% | reduction of ALP ([1]; ATV 20 mg group): 6%

concentration of the drug in bile [2]: concentrated in bile | main route of elimination [2]: through bile | area-under-the-curve exposure for seladelpar and two of its three principal metabolites [4]: increase | maximum plasma concentration of seladelpar [4]: significant increase | signals for drug-induced pruritus (subjects with PBC [5]; [9]): no signals for drug-induced pruritus | cases of asymptomatic increases in transaminases (subjects with PBC [6]; 50 mg group): one | cases of asymptomatic increases in transaminases (subjects with PBC [6]; 200 mg group): two
SMILES: CCO[C@H](COc1ccc(C(F)(F)F)cc1)CSc1ccc(OCC(=O)O)c(C)c1 [seladelpar, [4-({(2R)-2-ethoxy-3-[4-(trifluoromethyl)phenoxy]propyl}sulfanyl)-2-methylphenoxy] acetic acid]
specificity compared with PPARα (PPARα): > 600 fold | improvement in disease, manifested by decrease in ALP and GGT [3]: improvement in their disease | reduction of LDL [1, 7]: 18-43% | reduction of apolipoprotein B-100 [1, 7]: 20-38% | reduction of free fatty acids [1, 7]: 16-28% | reduction of high-sensitivity C-reactive protein (hs-CRP) [1, 7]: 43-72% | reduction of non-HDL-C [1, 7]: 18-41% | reduction of triglycerides (TGs) [1, 7]: 26-30% | rise of HDL-C [1, 7]: 1-12% | number of patients with the metabolic syndrome and a preponderance of small LDL particles ([1]; seladelpar alone and in combination with ATV): reduced the number of patients with the metabolic syndrome and a preponderance of small LDL particles | reduction of ALP ([1]; seladelpar groups): 32-43% | reduction of GGT ([1]; seladelpar groups): 24-28% | mean reduction in ALP (subjects with PBC [5]; 2 mg/day, 12 weeks): 21% | mean reduction in ALT (subjects with PBC [5]; 2 mg/day, 12 weeks): 9% | mean reduction in ALP (subjects with PBC [5]; 5 mg/day, 12 weeks): 33% | mean reduction in ALT (subjects with PBC [5]; 5 mg/day, 12 weeks): 28% | mean reduction in ALP (subjects with PBC [5]; 5 mg/day, 26 weeks): 45% | mean reduction in ALT (subjects with PBC [5]; 10 mg/day group, 26 weeks): 43% | subjects with ALP≤1.67×ULN (subjects with PBC [5]; 10 mg/day group, 26 weeks): 79% | subjects with ALP≤ULN (subjects with PBC [5]; 10 mg/day group, 26 weeks): 32% | subjects with TBIL≤ULN (subjects with PBC [5]; 10 mg/day group, 26 weeks): 89% | subjects with a decrease in ALP of ≥15% (subjects with PBC [5]; 10 mg/day group, 26 weeks): 89% | mean reduction in ALP (subjects with PBC [5]; 10 mg/day, 12 weeks): 45% | mean reduction in ALT (subjects with PBC [5]; 10 mg/day, 12 weeks): 35% | mean reduction in ALP (subjects with PBC [5]; 10 mg/day, 26 weeks): 43% | mean reduction in ALP (subjects with PBC [5]; 5 to 10 mg/day, 26 weeks): 43% | mean reduction in ALT (subjects with PBC [5]; [8]): 40% | subjects with ALP≤1.67×ULN (subjects with PBC [5]; [8]): 68% | subjects with ALP≤ULN (subjects with PBC [5]; [8]): 26% | subjects with TBIL≤ULN (subjects with PBC [5]; [8]): 95% | subjects with a decrease in ALP of ≥15% (subjects with PBC [5]; [8]): 95% | transaminase safety signals (subjects with PBC [5]; [9]): No transaminase safety signals | serious adverse events (subjects with PBC [5]; through 26 weeks, all doses, all deemed unrelated to seladelpar): 6 | adverse events leading to seladelpar discontinuation (subjects with PBC [5]; through 26 weeks, all doses, both deemed unrelated to seladelpar): 2 | responder rate (ALP<1.67×ULN, total bilirubin within normal limit, >15% decrease in ALP) (subjects with PBC [6]; 50 mg/day): 67% | mean decrease from baseline in ALP (subjects with PBC [6]; 50 mg/day oral): 57% | reduction of LDL-C (subjects with PBC [6]; 50 mg/day): 16% | responder rate (ALP<1.67×ULN, total bilirubin within normal limit, >15% decrease in ALP) (subjects with PBC [6]; 200 mg/day): 100% | mean decrease from baseline in ALP (subjects with PBC [6]; 200 mg/day oral): 62% | reduction of LDL-C (subjects with PBC [6]; 200 mg/day): 26% | adverse events of pruritus (subjects with PBC [6]; on treatment, 50 and 200 mg/day): no adverse events of pruritus were reported on treatment
